# According to PubChem BioAssay (NCI):
#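 Test compounds were applied to cells in 96-well plates for 48 hours at 5 doses. The concentration for 50% growth inhibition is given as GI50. Definition used: TGI = concentration required for complete inhibition of growth.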
# Test system: EKVX NSCLC
# Experiment: growth of human tumour cells (NCI), 48 h
SMILES,GI50 [µM],TGI [µM]
Cc1cc(N[C@@H]2CCC[C@H](Nc3ccnc4cc(Cl)ccc34)C2)nc(N2CCCCCC2)n1,1.62,3.84

# Test system: NCI-H522 lung
# Experiment: growth of human tumour cells (NCI), 48 h
SMILES,TGI [µM],GI50 [µM]
COc1cc2c(cc1OC)C1C3CCCCC3CCN1CC2 (stereo unspecified),> 100,
NC(=O)c1c(NC(=O)c2ccccc2)sc2c1CCC(=O)C2,2.14,0.346
COc1cc(O)c2c(c1)C(=O)c1cc3c(c(O)c1C2=O)C(OC1OC(C)C(OC)C(O)C1OC)C(OC)C(C)(O)C3=O (stereo unspecified),3.62,
COc1cnc2c(c1)C(=O)c1c-2n(CCCN2CCOCC2)c(=O)c2cc(Cl)ccc12,> 100,0.244
Cc1cc(N[C@@H]2CCC[C@H](Nc3ccnc4cc(Cl)ccc34)C2)nc(N2CCCCCC2)n1,4,1.93

# Test system: SK-MEL-28 melanoma
# Experiment: growth of human tumour cells (NCI), 48 h
SMILES,TGI [µM],GI50 [µM]
COc1cc2c(cc1OC)C1C3CCCCC3CCN1CC2 (stereo unspecified),> 100,
NC(=O)c1c(NC(=O)c2ccccc2)sc2c1CCC(=O)C2,19.2,2.88
COc1cc(O)c2c(c1)C(=O)c1cc3c(c(O)c1C2=O)C(OC1OC(C)C(OC)C(O)C1OC)C(OC)C(C)(O)C3=O (stereo unspecified),22.1,
COc1cnc2c(c1)C(=O)c1c-2n(CCCN2CCOCC2)c(=O)c2cc(Cl)ccc12,> 100,> 100
Cc1cc(N[C@@H]2CCC[C@H](Nc3ccnc4cc(Cl)ccc34)C2)nc(N2CCCCCC2)n1,3.62,1.85

# Test system: SF-539 CNS
# Experiment: growth of human tumour cells (NCI), 48 h
SMILES,TGI [µM],GI50 [µM]
COc1cc2c(cc1OC)C1C3CCCCC3CCN1CC2 (stereo unspecified),> 100,
NC(=O)c1c(NC(=O)c2ccccc2)sc2c1CCC(=O)C2,3.27,0.75
COc1cc(O)c2c(c1)C(=O)c1cc3c(c(O)c1C2=O)C(OC1OC(C)C(OC)C(O)C1OC)C(OC)C(C)(O)C3=O (stereo unspecified),17.8,
COc1cnc2c(c1)C(=O)c1c-2n(CCCN2CCOCC2)c(=O)c2cc(Cl)ccc12,0.65,0.23
Cc1cc(N[C@@H]2CCC[C@H](Nc3ccnc4cc(Cl)ccc34)C2)nc(N2CCCCCC2)n1,3.03,1.59

# Test system: COLO 205 colon
# Experiment: growth of human tumour cells (NCI), 48 h
SMILES,TGI [µM],GI50 [µM]
COc1cc2c(cc1OC)C1C3CCCCC3CCN1CC2 (stereo unspecified),> 100,
COc1cc(O)c2c(c1)C(=O)c1cc3c(c(O)c1C2=O)C(OC1OC(C)C(OC)C(O)C1OC)C(OC)C(C)(O)C3=O (stereo unspecified),13.3,
COc1cnc2c(c1)C(=O)c1c-2n(CCCN2CCOCC2)c(=O)c2cc(Cl)ccc12,> 100,0.193
Cc1cc(N[C@@H]2CCC[C@H](Nc3ccnc4cc(Cl)ccc34)C2)nc(N2CCCCCC2)n1,2.89,1.36

# Test system: HS 578T breast
# Experiment: growth of human tumour cells (NCI), 48 h
SMILES,TGI [µM],GI50 [µM]
COc1cc2c(cc1OC)C1C3CCCCC3CCN1CC2 (stereo unspecified),> 100,
NC(=O)c1c(NC(=O)c2ccccc2)sc2c1CCC(=O)C2,6.97,1.2
COc1cc(O)c2c(c1)C(=O)c1cc3c(c(O)c1C2=O)C(OC1OC(C)C(OC)C(O)C1OC)C(OC)C(C)(O)C3=O (stereo unspecified),33.3,
COc1cnc2c(c1)C(=O)c1c-2n(CCCN2CCOCC2)c(=O)c2cc(Cl)ccc12,> 100,24.9

# Test system: KM12 colon
# Experiment: growth of human tumour cells (NCI), 48 h
SMILES,TGI [µM],GI50 [µM]
COc1cc2c(cc1OC)C1C3CCCCC3CCN1CC2 (stereo unspecified),> 100,
NC(=O)c1c(NC(=O)c2ccccc2)sc2c1CCC(=O)C2,5.61,1.36
COc1cc(O)c2c(c1)C(=O)c1cc3c(c(O)c1C2=O)C(OC1OC(C)C(OC)C(O)C1OC)C(OC)C(C)(O)C3=O (stereo unspecified),15.9,
Cc1cc(N[C@@H]2CCC[C@H](Nc3ccnc4cc(Cl)ccc34)C2)nc(N2CCCCCC2)n1,4.48,2.06

# Test system: UACC-62 melanoma
# Experiment: growth of human tumour cells (NCI), 48 h
SMILES,TGI [µM],GI50 [µM]
COc1cc2c(cc1OC)C1C3CCCCC3CCN1CC2 (stereo unspecified),> 100,
NC(=O)c1c(NC(=O)c2ccccc2)sc2c1CCC(=O)C2,2.51,0.723
COc1cnc2c(c1)C(=O)c1c-2n(CCCN2CCOCC2)c(=O)c2cc(Cl)ccc12,> 100,0.187
Cc1cc(N[C@@H]2CCC[C@H](Nc3ccnc4cc(Cl)ccc34)C2)nc(N2CCCCCC2)n1,3.34,1.81
